# Laboratory results from PubChem BioAssay (NCI).
# Several values for one entry are separate records, joined by “and”; a condition that tells them apart may be missing. Equal values may be shown once.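 Method: 48-hour compound exposure of cells in 96-well plates, five concentrations, linear interpolation of endpoints. GI50: concentration for 50% inhibition of growth. The concentration for full growth arrest is given as TGI.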
# Legend:
# Experiment in all cases: NCI tumour cell line growth inhibition, 48 h
# 786-0 renal = test system: 786-0 renal
# A498 renal = test system: A498 renal
# A549 NSCLC = test system: A549 NSCLC
# ACHN renal = test system: ACHN renal
# BT-549 breast = test system: BT-549 breast
# CAKI-1 renal = test system: CAKI-1 renal
# CCRF-CEM leukemia = test system: CCRF-CEM leukemia
# COLO 205 colon = test system: COLO 205 colon
# DU-145 prostate = test system: DU-145 prostate
# EKVX NSCLC = test system: EKVX NSCLC
# HCC-2998 colon = test system: HCC-2998 colon
# HCT-116 colon = test system: HCT-116 colon
# HCT-15 colon = test system: HCT-15 colon
# HL-60(TB) leukemia = test system: HL-60(TB) leukemia
# HOP-62 NSCLC = test system: HOP-62 NSCLC
# HOP-92 NSCLC = test system: HOP-92 NSCLC
# HS 578T breast = test system: HS 578T breast
# HT29 colon = test system: HT29 colon
# IGROV1 ovarian = test system: IGROV1 ovarian
# K-562 leukemia = test system: K-562 leukemia
# KM12 colon = test system: KM12 colon
# LOX IMVI melanoma = test system: LOX IMVI melanoma
# M14 melanoma = test system: M14 melanoma
# MALME-3M melanoma = test system: MALME-3M melanoma
# MCF7 breast = test system: MCF7 breast
# MDA-MB-231 breast = test system: MDA-MB-231 breast
# MDA-MB-435 = test system: MDA-MB-435
# MDA-N = test system: MDA-N
# MOLT-4 leukemia = test system: MOLT-4 leukemia
# NCI-H226 lung = test system: NCI-H226 lung
# NCI-H23 lung = test system: NCI-H23 lung
# NCI-H460 lung = test system: NCI-H460 lung
# NCI-H522 lung = test system: NCI-H522 lung
# NCI/ADR-RES ovarian = test system: NCI/ADR-RES ovarian
# OVCAR-3 ovarian = test system: OVCAR-3 ovarian
# OVCAR-4 ovarian = test system: OVCAR-4 ovarian
# OVCAR-5 ovarian = test system: OVCAR-5 ovarian
# OVCAR-8 ovarian = test system: OVCAR-8 ovarian
# PC-3 prostate = test system: PC-3 prostate
# RPMI-8226 leukemia = test system: RPMI-8226 leukemia
# RXF 393 renal = test system: RXF 393 renal
# SF-268 CNS = test system: SF-268 CNS
# SF-295 CNS = test system: SF-295 CNS
# SF-539 CNS = test system: SF-539 CNS
# SK-MEL-2 melanoma = test system: SK-MEL-2 melanoma
# SK-MEL-28 melanoma = test system: SK-MEL-28 melanoma
# SK-MEL-5 melanoma = test system: SK-MEL-5 melanoma
# SN12C renal = test system: SN12C renal
# SNB-19 CNS = test system: SNB-19 CNS
# SNB-75 CNS = test system: SNB-75 CNS
# SR leukemia = test system: SR leukemia
# SW-620 colon = test system: SW-620 colon
# T-47D breast = test system: T-47D breast
# TK-10 renal = test system: TK-10 renal
# U251 CNS = test system: U251 CNS
# UACC-257 melanoma = test system: UACC-257 melanoma
# UACC-62 melanoma = test system: UACC-62 melanoma
# UO-31 renal = test system: UO-31 renal
# SK-OV-3 ovarian = test system: SK-OV-3 ovarian
smiles,measurement,setting,value
O=C(O)c1cc2ccccc2oc1=O,TGI,786-0 renal,> 100 µM
same,TGI,A498 renal,> 100 µM
same,TGI,A549 NSCLC,> 100 µM
same,TGI,ACHN renal,> 100 µM
same,TGI,BT-549 breast,> 100 µM
same,TGI,CAKI-1 renal,> 100 µM
same,TGI,CCRF-CEM leukemia,> 100 µM
same,TGI,COLO 205 colon,> 100 µM
same,TGI,DU-145 prostate,> 100 µM
same,TGI,EKVX NSCLC,> 100 µM
same,TGI,HCC-2998 colon,> 100 µM
same,TGI,HCT-116 colon,> 100 µM
same,TGI,HCT-15 colon,> 100 µM
same,TGI,HL-60(TB) leukemia,> 100 µM
same,TGI,HOP-62 NSCLC,> 100 µM
same,TGI,HOP-92 NSCLC,> 100 µM
same,TGI,HS 578T breast,> 100 µM
same,TGI,HT29 colon,> 100 µM
same,TGI,IGROV1 ovarian,> 100 µM
same,TGI,K-562 leukemia,> 100 µM
same,TGI,KM12 colon,> 100 µM
same,TGI,LOX IMVI melanoma,> 100 µM
same,TGI,M14 melanoma,> 100 µM
same,TGI,MALME-3M melanoma,> 100 µM
same,TGI,MCF7 breast,> 100 µM
same,TGI,MDA-MB-231 breast,> 100 µM
same,TGI,MDA-MB-435,> 100 µM
same,TGI,MDA-N,> 100 µM
same,TGI,MOLT-4 leukemia,> 100 µM
same,TGI,NCI-H226 lung,> 100 µM
same,TGI,NCI-H23 lung,> 100 µM
same,TGI,NCI-H460 lung,> 100 µM
same,TGI,NCI-H522 lung,> 100 µM
same,TGI,NCI/ADR-RES ovarian,> 100 µM
same,TGI,OVCAR-3 ovarian,> 100 µM
same,TGI,OVCAR-4 ovarian,> 100 µM
same,TGI,OVCAR-5 ovarian,> 100 µM
same,TGI,OVCAR-8 ovarian,> 100 µM
same,TGI,PC-3 prostate,> 100 µM
same,TGI,RPMI-8226 leukemia,> 100 µM
same,TGI,RXF 393 renal,> 100 µM
same,TGI,SF-268 CNS,> 100 µM
same,TGI,SF-295 CNS,> 100 µM
same,TGI,SF-539 CNS,> 100 µM
same,TGI,SK-MEL-2 melanoma,> 100 µM
same,TGI,SK-MEL-28 melanoma,> 100 µM
same,TGI,SK-MEL-5 melanoma,> 100 µM
same,TGI,SN12C renal,> 100 µM
same,TGI,SNB-19 CNS,> 100 µM
same,TGI,SNB-75 CNS,> 100 µM
same,TGI,SR leukemia,> 100 µM
same,TGI,SW-620 colon,> 100 µM
same,GI50,T-47D breast,> 100 µM and 33.6 µM
same,TGI,T-47D breast,> 100 µM
same,TGI,TK-10 renal,> 100 µM
same,TGI,U251 CNS,> 100 µM
same,TGI,UACC-257 melanoma,> 100 µM
same,TGI,UACC-62 melanoma,> 100 µM
same,TGI,UO-31 renal,> 100 µM
O=[N+]([O-])/C=C/c1cc2ccccc2[nH]1,TGI,786-0 renal,27.9 µM
same,TGI,A498 renal,34.4 µM
same,TGI,A549 NSCLC,42.7 µM
same,TGI,ACHN renal,31.1 µM
same,TGI,BT-549 breast,29.5 µM
same,TGI,CAKI-1 renal,33.7 µM
same,TGI,CCRF-CEM leukemia,9.61 µM
same,TGI,COLO 205 colon,32.7 µM
same,TGI,DU-145 prostate,28.8 µM
same,TGI,EKVX NSCLC,78 µM
same,TGI,HCT-116 colon,15.7 µM
same,TGI,HCT-15 colon,53.6 µM
same,TGI,HL-60(TB) leukemia,24.3 µM
same,TGI,HOP-62 NSCLC,32.4 µM
same,TGI,HOP-92 NSCLC,43.5 µM
same,TGI,HS 578T breast,50 µM
same,TGI,HT29 colon,35.5 µM
same,TGI,IGROV1 ovarian,26.3 µM
same,TGI,K-562 leukemia,52.8 µM
same,TGI,KM12 colon,25 µM
same,TGI,LOX IMVI melanoma,29.5 µM
same,TGI,M14 melanoma,28.5 µM
same,TGI,MALME-3M melanoma,59.8 µM
same,TGI,MCF7 breast,13.1 µM
same,TGI,MDA-MB-231 breast,36.9 µM
same,TGI,MDA-MB-435,6.95 µM
same,TGI,MDA-N,12.1 µM
same,TGI,MOLT-4 leukemia,44.2 µM
same,TGI,NCI-H226 lung,37.7 µM
same,TGI,NCI-H23 lung,30.2 µM
same,TGI,NCI-H460 lung,30.4 µM
same,TGI,NCI-H522 lung,24.2 µM
same,TGI,NCI/ADR-RES ovarian,98.2 µM
same,TGI,OVCAR-3 ovarian,28.2 µM
same,TGI,OVCAR-4 ovarian,27.4 µM
same,TGI,OVCAR-5 ovarian,37.1 µM
same,TGI,OVCAR-8 ovarian,48.8 µM
same,TGI,PC-3 prostate,31.7 µM
same,TGI,RPMI-8226 leukemia,9.85 µM
same,TGI,RXF 393 renal,26.6 µM
same,TGI,SF-268 CNS,36.4 µM
same,TGI,SF-295 CNS,43.9 µM
same,TGI,SF-539 CNS,25.5 µM
same,TGI,SK-MEL-2 melanoma,34.6 µM
same,TGI,SK-MEL-28 melanoma,44 µM
same,TGI,SK-MEL-5 melanoma,28.2 µM
same,TGI,SK-OV-3 ovarian,32.8 µM
same,TGI,SN12C renal,37.2 µM
same,TGI,SNB-19 CNS,34.7 µM
same,TGI,SNB-75 CNS,28.6 µM
same,TGI,SR leukemia,26.8 µM
same,TGI,SW-620 colon,34.5 µM
same,TGI,T-47D breast,33.9 µM
same,TGI,TK-10 renal,32.2 µM
same,TGI,U251 CNS,25.8 µM
same,TGI,UACC-257 melanoma,29.6 µM
same,TGI,UACC-62 melanoma,33.7 µM
same,TGI,UO-31 renal,31.9 µM
